Measured values as given in PubChem BioAssay (NCI).
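Five concentrations, 48 hours, 96-well plates. The concentration for full growth arrest is given as TGI.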

How the values were obtained:
Experiment in all cases: inhibition of tumour cell growth, NCI panel, 48 h
786-0 renal = system: 786-0 renal
A549 NSCLC = system: A549 NSCLC
ACHN renal = system: ACHN renal
BT-549 breast = system: BT-549 breast
CAKI-1 renal = system: CAKI-1 renal
CCRF-CEM leukemia = system: CCRF-CEM leukemia
COLO 205 colon = system: COLO 205 colon
DU-145 prostate = system: DU-145 prostate
EKVX NSCLC = system: EKVX NSCLC
HCC-2998 colon = system: HCC-2998 colon
HCT-116 colon = system: HCT-116 colon
HCT-15 colon = system: HCT-15 colon
HL-60(TB) leukemia = system: HL-60(TB) leukemia
HOP-62 NSCLC = system: HOP-62 NSCLC
HOP-92 NSCLC = system: HOP-92 NSCLC
HS 578T breast = system: HS 578T breast
HT29 colon = system: HT29 colon
IGROV1 ovarian = system: IGROV1 ovarian
K-562 leukemia = system: K-562 leukemia
LOX IMVI melanoma = system: LOX IMVI melanoma
M14 melanoma = system: M14 melanoma
MALME-3M melanoma = system: MALME-3M melanoma
MCF7 breast = system: MCF7 breast
MDA-MB-231 breast = system: MDA-MB-231 breast
MDA-MB-435 = system: MDA-MB-435
MDA-N = system: MDA-N
MOLT-4 leukemia = system: MOLT-4 leukemia
NCI-H23 lung = system: NCI-H23 lung
NCI-H460 lung = system: NCI-H460 lung
NCI/ADR-RES ovarian = system: NCI/ADR-RES ovarian
OVCAR-4 ovarian = system: OVCAR-4 ovarian
OVCAR-5 ovarian = system: OVCAR-5 ovarian
OVCAR-8 ovarian = system: OVCAR-8 ovarian
PC-3 prostate = system: PC-3 prostate
RPMI-8226 leukemia = system: RPMI-8226 leukemia
RXF 393 renal = system: RXF 393 renal
SF-268 CNS = system: SF-268 CNS
SF-539 CNS = system: SF-539 CNS
SK-MEL-2 melanoma = system: SK-MEL-2 melanoma
SK-MEL-28 melanoma = system: SK-MEL-28 melanoma
SK-MEL-5 melanoma = system: SK-MEL-5 melanoma
SK-OV-3 ovarian = system: SK-OV-3 ovarian
SN12C renal = system: SN12C renal
SNB-19 CNS = system: SNB-19 CNS
SNB-75 CNS = system: SNB-75 CNS
SR leukemia = system: SR leukemia
SW-620 colon = system: SW-620 colon
TK-10 renal = system: TK-10 renal
U251 CNS = system: U251 CNS
UACC-257 melanoma = system: UACC-257 melanoma
UACC-62 melanoma = system: UACC-62 melanoma
UO-31 renal = system: UO-31 renal
A498 renal = system: A498 renal
KM12 colon = system: KM12 colon
T-47D breast = system: T-47D breast

Measured: TGI

CC(C)(C)N=C(N)NC#N
not listed: A498 renal | KM12 colon | T-47D breast
> 100 µM: all other assays above

CNc1nncc2[nH]cnc12
not listed: A549 NSCLC | HCC-2998 colon | HOP-62 NSCLC | K-562 leukemia | M14 melanoma | MALME-3M melanoma | NCI-H23 lung | NCI-H460 lung | NCI/ADR-RES ovarian | OVCAR-4 ovarian | OVCAR-5 ovarian | PC-3 prostate | SF-539 CNS | SK-MEL-2 melanoma | SR leukemia
> 100 µM: all other assays above
